Data from patent US20250270199A1, “THIAZOLE DERIVATIVES AND METHODS OF USING THE SAME” (Arkansas State University - Jonesboro, priority 2022, published 2025).
≈ marks a conversion by molar mass, not a printed value. Read-outs that look alike come from different tables or passages of the source.

What was measured:
[1] = system: E. faecalis ATCC 51299 (Efs 99); test: MIC, broth microdilution, Efs 99; format: cell-based; conditions: for MIC: Enterococcus faecalis, ATCC51299, read-out: Minimum inhibitory concentration (MIC) Efs 99
Experimental: (§1) The broth microdilution method was utilized to determine MIC values of novel thiazole derivatives against different clinically important Gram-positive bacteria according to the guidelines outlined by the Clinical and Laboratory Standards Institute (CLSI) as reported in our recent papers.^1-5 The starting concentration of compounds for MIC determination was 64 μg/mL serially diluted down the wells and the MIC values were recorded in duplicates in three independent experiments on different days.

[2] = system: S. aureus ATCC BAA-2312 (Sa 12); test: MIC, broth microdilution, Sa 12; format: cell-based; conditions: Staphylococcus aureus, ATCCBAA2312; Table 2, HTM series; read-out: Minimum inhibitory concentration (MIC) Sa 12
Experimental: as §1

[3] = system: S. aureus ATCC 33592 (Sa 92); test: MIC, broth microdilution, Sa 92; format: cell-based; conditions: Staphylococcus aureus, ATCC33592; Table 2, HTM series; read-out: Minimum inhibitory concentration (MIC) Sa 92
Experimental: as §1

[4] = system: E. faecalis ATCC 29212 (Efs 12); test: MIC, broth microdilution, Efs 12; format: cell-based; conditions: for MIC: Enterococcus faecalis, read-out: Minimum inhibitory concentration (MIC) Efs 12; for Minimum inhibitory concentration (MIC) Efs 12: Table 1, HT series
Experimental: as §1

[5] = system: S. aureus ATCC 25923 (Sa 23); test: MIC, broth microdilution, Sa 23; format: cell-based; conditions: for MIC: Staphylococcus aureus, read-out: Minimum inhibitory concentration (MIC) Sa 23; for Minimum inhibitory concentration (MIC) Sa 23: Table 1, HT series
Experimental: as §1

[6] = system: S. aureus subsp. aureus Rosenbach ATCC 25904 (SA Newman); test: MIC, broth microdilution, SA Newman; format: cell-based; conditions: Staphylococcus aureus; Table 2, HTM series; read-out: Minimum inhibitory concentration (MIC) Sa Newman
Experimental: as §1

[7] = system: S. aureus subsp. aureus Rosenbach BAA-1717 (Sa USA 300); test: MIC, broth microdilution, Sa USA 300; format: cell-based; conditions: Staphylococcus aureus; Table 2, HTM series; read-out: Minimum inhibitory concentration (MIC) Sa USA 300
Experimental: as §1

[8] = system: S. epidermidis ATCC 700296 (Se); test: MIC, broth microdilution, Se; format: cell-based; conditions: Staphylococcus epidermidis, ATCC700296; Table 2, HTM series; read-out: Minimum inhibitory concentration (MIC) Se
Experimental: as §1

[9] = system: S. aureus ATCC 700699 (Sa 99); test: MIC, broth microdilution, Sa 99; format: cell-based; conditions: for MIC: Staphylococcus aureus, read-out: Minimum inhibitory concentration (MIC) Sa 99; for Minimum inhibitory concentration (MIC) Sa 99: Table 1, HT series
Experimental: as §1

[10] = system: Sa UAMS-1 MRSA ATCC 49230 (Sa UAMS); test: MIC, broth microdilution, Sa UAMS; format: cell-based, S. aureus; conditions: Staphylococcus aureus; Table 2, HTM series; read-out: Minimum inhibitory concentration (MIC) Sa UAMS-1
Experimental: as §1

[11] = system: E. faecium ATCC 700221 (Efm 21); test: MIC, broth microdilution, Efm 21; format: cell-based; conditions: Enterococcus faecium, read-out: Minimum inhibitory concentration (MIC) Efm 21
Experimental: as §1

[12] = system: S. aureus ATCC 33591 (Sa 91); test: MIC, broth microdilution, Sa 91; format: cell-based; conditions: Staphylococcus aureus, ATCC33591; Table 2, HTM series; read-out: Minimum inhibitory concentration (MIC) Sa 91
Experimental: as §1

[13] = ATCC700699, Table 2, HTM series
[14] = ATCC700221, Table 2, HTM series
[15] = ATCC29212, Table 1, HT series, replicates from different days separated by comma
[16] = replicates from different days separated by comma
[17] = ATCC25923, Table 1, HT series, replicates from different days separated by comma
[18] = ATCC700699, Table 1, HT series, replicates from different days separated by comma

Row | SMILES | MIC ([1]; Table 2, HTM series) [µg/mL] | MIC [2] [µg/mL] | MIC [3] [µg/mL] | MIC ([4]; ATCC29212, Table 2, HTM series) [µg/mL] | MIC ([5]; ATCC25923, Table 2, HTM series) [µg/mL] | MIC [6] [µg/mL] | MIC [7] [µg/mL] | MIC [8] [µg/mL] | MIC [9, 13] [µg/mL] | MIC [10] [µg/mL] | MIC [11, 14] [µg/mL] | MIC [12] [µg/mL] | MIC [4, 15] [µg/mL] | Minimum inhibitory concentration (MIC) Efs 12 [4, 16] | MIC [5, 17] [µg/mL] | Minimum inhibitory concentration (MIC) Sa 23 [5, 16] | MIC [9, 18] [µg/mL] | Minimum inhibitory concentration (MIC) Sa 99 [9, 16] | other results
1 | Oc1ccc(-c2csc(-c3ccc(C(F)(F)F)cc3)n2)cc1O [Compound 47, 4-{2-[4-(trifluoromethyl)phenyl]-1,3-thiazol-4-yl}benzene-1,2-diol] | 8 (≈ 23.7 µM) | 4 (≈ 11.9 µM) | 8 (≈ 23.7 µM) | 16 (≈ 47.4 µM) | 4 (≈ 11.9 µM) | 8 (≈ 23.7 µM) | 8 (≈ 23.7 µM) | 8 (≈ 23.7 µM) | 8 (≈ 23.7 µM) | 8 (≈ 23.7 µM) | 8 (≈ 23.7 µM) | 8 (≈ 23.7 µM) |  |  |  |  |  |  | 
2 | O=C(O)c1ccc(-c2csc(-c3ccc(O)c(O)c3)n2)cc1 [Compound 13, 4-(2-(3,4-dihydroxyphenyl)thiazol-4-yl)benzoic acid] |  |  |  |  |  |  |  |  |  |  |  |  | > 32 | >32, >32 μg/mL | > 32 | >32, >32 μg/mL | > 32 | >32, >32 μg/mL | 
3 | CCCCCCCCCC(=O)N[C@@H](Cc1c[nH]c2ccccc12)C(=O)N[C@H](CC(N)=O)C(=O)N[C@@H](CC(=O)O)C(=O)N[C@@H]1C(=O)NCC(=O)N[C@@H](CCCN)C(=O)N[C@@H](CC(=O)O)C(=O)N[C@H](C)C(=O)N[C@@H](CC(=O)O)C(=O)NCC(=O)N[C@H](CO)C(=O)N[C@@H]([C@H](C)CC(=O)O)C(=O)N[C@@H](CC(=O)c2ccccc2N)C(=O)O[C@@H]1C [Dapt., Daptomycin, reference compound] |  |  |  |  |  |  |  |  |  |  | 1 (≈ 0.617 µM) |  |  |  |  |  |  |  | MIC ([1]; Table 1, HT series): 1 µg/mL (≈ 0.617 µM); Minimum inhibitory concentration (MIC) Efs 99 ([1]; Table 2, HTM series): 1 µg/mL (≈ 0.617 µM); MIC ([11]; ATCC700221, Table 1, HT series): 4 µg/mL (≈ 2.47 µM)
4 | Oc1ccc(-c2nc(C(F)(F)F)cs2)cc1O [Compound 1, 4-(4-(trifluoromethyl)thiazol-2-yl)benzene-1,2-diol] |  |  |  |  |  |  |  |  |  |  |  |  | > 32 | >32, >32 μg/mL | > 32 | >32, >32 μg/mL | > 32 | >32, >32 μg/mL | 
5 | Oc1ccc(-c2nc(-c3ccc(-c4ccccc4)cc3)cs2)cc1O [Compound 15, 4-(4-([1,1′-biphenyl]-4-yl)thiazol-2-yl)benzene-1,2-diol] |  |  |  |  |  |  |  |  |  |  |  |  | > 32 | >32, >32 μg/mL | > 32 | >32, >32 μg/mL | > 32 | >32, >32 μg/mL | 

Further lines, with some results ahead:

Row | MIC ([1]; Table 2, HTM series) [µg/mL] | MIC [2] [µg/mL] | MIC [3] [µg/mL] | MIC ([4]; ATCC29212, Table 2, HTM series) [µg/mL] | MIC ([5]; ATCC25923, Table 2, HTM series) [µg/mL] | MIC [6] [µg/mL] | MIC [7] [µg/mL] | MIC [8] [µg/mL] | MIC [9, 13] [µg/mL] | MIC [10] [µg/mL] | MIC [11, 14] [µg/mL] | MIC [12] [µg/mL] | MIC [4, 15] [µg/mL] | Minimum inhibitory concentration (MIC) Efs 12 [4, 16] | MIC [5, 17] [µg/mL] | Minimum inhibitory concentration (MIC) Sa 23 [5, 16] | MIC [9, 18] [µg/mL] | Minimum inhibitory concentration (MIC) Sa 99 [9, 16] | SMILES | other results
6 | 8 (≈ 25.3 µM) | 4 (≈ 12.6 µM) | 4 (≈ 12.6 µM) | 8 (≈ 25.3 µM) | 4 (≈ 12.6 µM) | 4 (≈ 12.6 µM) | 4 (≈ 12.6 µM) | 4 (≈ 12.6 µM) | 4 (≈ 12.6 µM) | 4 (≈ 12.6 µM) | 4 (≈ 12.6 µM) | 8 (≈ 25.3 µM) |  |  |  |  |  |  | Cc1ccc(Nc2nc(-c3ccc(O)cc3)cs2)cc1Cl [Compound 67, 4-(2-((3-chloro-4-methylphenyl)amino)thiazol-4-yl)phenol] | 
7 | 4 (≈ 10.8 µM) | 1 (≈ 2.69 µM) | 1 (≈ 2.69 µM) | 4 (≈ 10.8 µM) | 1 (≈ 2.69 µM) | 4 (≈ 10.8 µM) | 4 (≈ 10.8 µM) | 8 (≈ 21.5 µM) | 1 (≈ 2.69 µM) | 4 (≈ 10.8 µM) | 4 (≈ 10.8 µM) | 1 (≈ 2.69 µM) |  |  |  |  |  |  | Oc1ccc(-c2csc(Nc3cc(Cl)c(Cl)cc3Cl)n2)cc1 [Compound 69, 4-(2-((2,4,5-trichlorophenyl)amino)thiazol-4-yl)phenol] | 
8 | 8 (≈ 23.7 µM) | 4 (≈ 11.9 µM) | 4 (≈ 11.9 µM) | 4 (≈ 11.9 µM) | 4 (≈ 11.9 µM) | 4 (≈ 11.9 µM) | 4 (≈ 11.9 µM) | 4 (≈ 11.9 µM) | 4 (≈ 11.9 µM) | 4 (≈ 11.9 µM) | 8 (≈ 23.7 µM) | 4 (≈ 11.9 µM) |  |  |  |  |  |  | Oc1ccc(-c2csc(Nc3cc(Cl)ccc3Cl)n2)cc1 [Compound 73, 4-(2-((2,5-dichlorophenyl)amino)thiazol-4-yl)phenol] | 
